Source: the NIST ThermoML archive (doi:10.1016/j.tca.2016.02.005)

Key:
[1] = 101.3 kPa, Liquid; for speed of sound: Frequency=3 MHz, Sing-around technique in a fixed-path interferometer; for mass density: Vibrating tube method
[2] = refractive index (Na D-line) (dimensionless); settings: 101.3 kPa, Liquid, Standard Abbe refractometry
[3] = xn = mol fraction of the nth substance listed; settings: 101.3 kPa, Liquid, x1 = 1; for speed of sound: Frequency=3 MHz, Sing-around technique in a fixed-path interferometer; for mass density: Vibrating tube method
[4] = refractive index (Na D-line) (dimensionless); xn = mol fraction of the nth substance listed; settings: 101.3 kPa, Liquid, Standard Abbe refractometry, x1 = 1

COCCO [2-methoxyethan-1-ol]
Settings | mass density, [1] [kg/m3] | refractive index, [2] | speed of sound, [1] [m/s]
298.15 K | 960.9 | 1.4003 | 1345.8
308.15 K | 951.7 | 1.3961 | 1311.3
318.15 K | 942.7 | 1.3917 | 1276.4
328.15 K | 933.4 | 1.3876 | 1241.9

CCn1cc[n+](C)c1.F[B-](F)(F)F [1-ethyl-3-methylimidazolium tetrafluoroborate] + COCCO
Settings | mass density, [3] [kg/m3] | refractive index, [4] | speed of sound, [3] [m/s]
298.15 K | 1277.6 | 1.4103 | 1622.9
308.15 K | 1269.9 | 1.4077 | 1599.5
318.15 K | 1262.1 | 1.4051 | 1576.5
328.15 K | 1254.6 | 1.4023 | 1553.8

CCn1cc[n+](C)c1.F[B-](F)(F)F [1-ethyl-3-methylimidazolium tetrafluoroborate]
Settings | mass density, [1] [kg/m3] | refractive index, [2] | speed of sound, [1] [m/s]
298.15 K | 1277.6 | 1.4103 | 1622.9
308.15 K | 1269.9 | 1.4077 | 1599.5
318.15 K | 1262.1 | 1.4051 | 1576.5
328.15 K | 1254.6 | 1.4023 | 1553.8
